Assay results taken from US20110033390A1, “MR IMAGING AGENT OR MEDIUM COMPRESSING HYPERPOLARISED 13C ALANINE AND METHODS OF IMAGING WHEREIN SUCH AN IMAGING MEDIUM IS USED” (priority 2008, published 2011).
Values belong to the compound of their own block, whether it stands above or below them.

Assays:
[1] = Solid state polarisation after DNP, by solid state 13C-NMR; format: physicochemical; settings: DNP at 1.2 K, 3.35 T, microwave 93.90 GHz; trityl radical and Gd-chelate present
Description: The level of polarisation may for instance be determined by solid state ^13C-NMR measurements in solid hyperpolarised ^13C-alanine, e.g. solid hyperpolarised ^13C-alanine obtained by dynamic nuclear polarisation (DNP) of ^13C-alanine. The solid state ^13C-NMR measurement preferably consists of a simple pulse-acquire NMR sequence using a low flip angle. The signal intensity of the hyperpolarised ^13C-alanine in the NMR spectrum is compared with signal intensity of ^13C-alanine in a NMR spectrum acquired before the polarisation process. The level of polarisation is then calculated from the ratio of the signal intensities of before and after polarisation.
The probe is inserted into the probe-retaining container, submerged in the liquid helium and irradiated with microwaves, preferably at a frequency of about 94 GHz at 200 mW. The level of polarisation may for instance be monitored by solid state ^13C-NMR measurements of the ^13C-nuclei in the frozen composition comprising the hyperpolarised sample. […] The level of polarisation is then calculated from the ratio of the signal intensities of before and after polarisation.
32.5 mg (0.258 mmol) of the ^13C1-alaninium chloride obtained in Example 1a was added to 42 mg of a stock solution in a micro test tube. […] Polarisation was followed by solid state ^13C-NMR and the solid state polarisation was determined to be 40%. […]

Hep-G2 cells = test: In vitro 13C-MR spectroscopy with hyperpolarised 13C1-alanine imaging medium; format: cell-based, human; settings: 3 mM 13C1-alanine, 10x10^6 Hep-G2 cells, 20 s incubation
Experimental: An imaging medium was prepared as described in Example 1 and 100 μl of the imaging medium (3 mM ^13C1-alanine) was mixed into 10×10^6 Hep-G2 cells (human hepatocellular carcinoma cells). A single ^13C-MR spectrum was acquired after a total of 20 s incubation time with a 90 degree RF pulse. ^13C1-pyruvate and ^13C1-lactate were identified in the spectrum. The conversion of alanine was approximately 0.1% to both lactate and pyruvate.

mouse heart = test: In vivo 13C-MR spectroscopy in mice (heart)
Experimental: 175 μl of an imaging medium which was prepared as described in Example 1 was injected into a C57B1/6 mouse over a time period of 6 s. The ^13C1-alanine concentration in said imaging medium was about 55 mM. A surface coil (tuned for proton and carbon) was positioned over the heart of the animal and ^13C-MR spectroscopy was carried out in a 9.4 T magnet. A dynamic set of ^13C-MR spectra (in total 10) was acquired every 5 s with a 30 degree RF pulse. […] The lactate seen in the experiment is expected to originate from pyruvate. […] Comparing Examples 5 and 6, a different metabolic profile is obtained for the liver and the heart showing that ^13C-alanine is a tissue specific metabolic marker.

mice (whole body) = test: In vivo 13C-MR spectroscopy in mice (whole body); design: species or system mouse
Experimental: 175 μl of an imaging medium which was prepared as described in Example 1 was injected into a C57B1/6 mouse over a time period of 6 s. The ^13C1-alanine concentration in said imaging medium was approximately 50 mM and 3 animals were used in the experiment. A rat size whole body coil (tuned for proton and carbon) was placed over the animal and ^13C-MR spectroscopy was carried out in a 9.4 T magnet. A dynamic set of ^13C-MR spectra (in total 5) was acquired every 5 s with a 15 degree RF pulse. Metabolism was seen to ^13C1-lactate (approximately 1% of the ^13C1-lactate signal), see FIG. 1. […] The following decay time was calculated from the MR spectra: ^13C1-lactate 33 s. […] It is thus favourable to detect the lactate signal which due to its slow decay provides a larger MR detection window.

[2] = Liquid state polarisation after dissolution and neutralization, by liquid state 13C-NMR at 400 MHz; format: physicochemical
Experimental: In a similar way, the level of polarisation for hyperpolarised ^13C-alanine in solution may be determined by liquid state NMR measurements. Again the signal intensity of the hyperpolarised ^13C-alanine in solution is compared with the signal intensity of the ^13C-alanine in solution before polarisation. The level of polarisation is then calculated from the ratio of the signal intensities of ^13C-alanine before and after polarisation.
After 150 minutes of dynamic nuclear polarisation, the obtained frozen polarised solution was dissolved in a dissolution medium containing 6 ml of a phosphate buffer (20 mM, pH 6.8, 100 mg/l EDTA), aqueous NaOH (27 μl 12 M solution, 1 eq) and 30 mg NaCl. The pH of the final liquid was 6.8.
Liquid state polarisation was determined by liquid state ^13C-NMR at 400 MHz to be 35%.
After 120 minutes of dynamic nuclear polarisation, the obtained frozen polarised solution was dissolved in a dissolution medium containing 6 ml BIS TRIS (40 mM, pH 6, 100 mg/l EDTA, 0.9% NaCl). The pH of the final solution containing the dissolved composition was 6.
Liquid state polarisation was determined by liquid state ^13C-NMR at 400 MHz to be 16%.

mouse liver = test: In vivo 13C-MR spectroscopy in mice (liver); settings: C57B1/6 mouse, surface coil over liver
Experimental: 175 μl of an imaging medium which was prepared as described in Example 1 was injected into a C57B1/6 mouse over a time period of 6 s. The ^13C1-alanine concentration in said imaging medium was approximately 55 mM. A surface coil (tuned for proton and carbon) was positioned over the liver of the animal and ^13C-MR spectroscopy was carried out in a 9.4 T magnet. A dynamic set of ^13C-MR spectra (in total 15) was acquired every 5 s with a 30 degree RF pulse. This experiment confirmed that ^13C1-lactate is building up during the time course of the experiment, see FIG. 3.

[3] = mouse, in vivo
Experimental: In another preferred embodiment, the imaging medium comprising hyperpolarised ^13C-alanine is administered repeatedly, thus allowing dynamic studies. This is a further advantage of the method according to the invention compared to other MR detection methods using conventional MR contrast agents which—in higher doses—may show toxic effects.

[4] = Relaxation / loss of polarisation in solution as a function of pH; format: physicochemical; settings: solutions with a pH above 7
Description: If the sample used in the composition for DNP is a carboxylate salt of ^13C-alanine, said salt needs to be converted to the free ^13C-alanine by reaction (neutralization) with an acid. […] Thus, if a carboxylate salt of ^13C-alanine was used in the composition for DNP, the liquefaction and neutralization of the solid composition comprising the hyperpolarised carboxylate salt of ^13C-alanine needs to be carried out carefully in order to avoid loss of polarisation. Neutralization may be carried out simultaneously or subsequently to the liquefaction, for the latter it must be taken care that neutralization is carried out quickly and directly after liquefaction. Thus, in one embodiment the liquefaction is carried out by melting or dissolution of the frozen composition and neutralization with an acid is quickly carried out after the frozen composition was dissolved/melted. In another embodiment, liquefaction and neutralization are carried out simultaneously, e.g. by dissolving the frozen composition in a dissolution medium which is or contains an acid that is capable of converting the hyperpolarised carboxylate salt of ^13C-alanine to ^13C-alanine. In yet another embodiment the acid is added to the probe-retaining cup which contains the frozen composition in the dynamic nuclear polarisation process. […] The most preferred acid is HCl since it is cheap and readily available.

Compound: CC(N)[13C](=O)O (stereo not drawn) [^13C1-alanine]
conversion of alanine to lactate (Hep-G2 cells): approximately 0.1%
conversion of alanine to pyruvate (Hep-G2 cells): approximately 0.1%
build-up of 13C1-lactate (mouse heart; C57B1/6 mouse, 175 µl of about 55 mM, surface coil over heart): noteworthy slow
pyruvate signal (mouse heart; mouse heart): absence of pyruvate
metabolism to 13C1-lactate (relative signal) (mice (whole body); C57B1/6 mouse, 175 µl of approx. 50 mM injected over 6 s, whole body coil, 9.4 T): approximately 1%
pyruvate signal (mice (whole body); mouse whole body): No pyruvate signal could be detected
liquid state polarisation ([2]; Example 1c: from 13C1-alaninium chloride after 150 min DNP, dissolved in phosphate buffer/NaOH, final pH 6.8): 35%
liquid state polarisation ([2]; Example 2: from sodium 13C1-2-amino-propanoate after 120 min DNP, dissolved in BIS TRIS, HCl neutralization, final pH 6): 16%
13C1-lactate signal over the time course (mouse liver; 175 µl of approx. 55 mM): building up
13C1-pyruvate and 13C1-bicarbonate signals (mouse liver; 15 combined spectra): could be detected

Compound: C[C@H](O)[13C](=O)O [^13C1-lactate]
decay time calculated from the MR spectra (mice (whole body); 13C1-lactate signal after injection of hyperpolarised 13C1-alanine, mouse whole body): 33 s

Compound: CC(N)C(=O)O (stereo not drawn) [hyperpolarised ^13C-alanine, 2-amino-propanoic acid]
tolerability [3]: well tolerated
relaxation rate / loss of polarisation [4]: high relaxation rates

Next, values leading:

solid state polarisation [1]: 18%
Compound: CC(N)[13C](=O)[O-].[Na+] (stereo not drawn) [sodium ^13C1-2-amino-propanoate]

solid state polarisation [1]: 40%
Compound: C[C@H](N)[13C](=O)O.Cl [^13C1-alaninium chloride]
